Assay type in all cases: cell-based
Data set [1] deals with B16F1 mouse melanoma cells. Kind of data set: Intracellular melanin enhancement. The conditions noted are these: for Folds of Melanin Enhancement compared to control: Table E; for melanin enhancement activity, comparison in words: Tables C and E. As to the method:
B16F1 mouse melanoma cells are treated with varying concentrations of actives I, II and III and other optional actives or combinations thereof at a time interval of 3 days for nine consecutive days. The intracellular melanin in both the controls and test B16F1 mouse melanoma cells is extracted by 1 N NaOH and subjected to a heat treatment at 100° C. The extracted melanin is estimated at 405 nm in a Fluostar Optima Microplate Reader.

In data set [2] the test system is HaCaT human keratinocyte cell line. Kind of data set: UV A protection of HaCaT keratinocytes, topical application model (Protocol I, SRB viability). The note with it: for % UV A protection: Topical model. As to the method: (§1) The protocol is based on evaluating the reduction in photo damage caused by UV A and UV B in HaCaT human keratinocyte cell line. The cell viability is measured by Sulphorhodamine B assay (SRB assay) after exposure to UV rays. The percentage of UV protection is calculated based on the number of viable cells in the control (untreated) and test HaCaT human keratinocytes (treated with the labdane-diterpenoids based composition of the present invention) after UV exposure. The photoprotection assays to screen compounds for their UV protection efficacy during topical and oral applications as discussed in J Am Acad Dermatol 2003; 49: 458-472 is adopted as a reference.
(§2) Protocol I—Screening compounds suited for topical applications for UV protection efficacy 0.5×10^4 HaCaT human keratinocyte cells/well are counted and seeded into a 96 well micro titer plates. The cells are incubated at 37° C. in 5% CO2 for 24 hours. The growth medium is then removed and replaced with medium containing varying concentrations of the labdane-diterpenoids based composition of the present invention. The cells are immediately exposed to ultraviolet irradiation and further incubated for 72 hours. After 72 hours, the cell viability is determined by SRB assay.
(§3) The UV A exposure in both the protocols involves three UV A bulbs providing 108 watts of power. The plates are exposed for 1 hour at a distance of 5 cm from the source of light. The UV B exposure in both the protocols involves three UV B bulbs which provide 100 μwatt/cm^2 or 0.14 J/cm^2 irradiation dose. The plates are exposed for 7 minutes at a distance of 30 cm from the source of light.

For data set [3] the test system is unchanged. Briefly: UV B protection of HaCaT keratinocytes, oral application model (Protocol II). As for the experimental part:
as §1
(§4) Protocol II—Screening compounds suited for oral applications for UV protection efficacy 0.5×10^4 HaCaT human keratinocyte cells/well are counted and seeded into a 96 well micro titer plates. The cells are incubated at 37° C. in 5% CO2 for 24 hours. The growth medium is then removed and replaced with medium containing varying concentrations of the labdane-diterpenoids based composition of the present invention. The cells are then incubated for 24 hours to be followed by UV treatment. The UV treated cells are further incubated for 48 hours after which, cell viability is determined using the SRB or neutral red uptake assays.
as §3

Data set [4] has the same test system. Briefly: UV A protection of HaCaT keratinocytes, oral application model (Protocol II). As for the experimental part: as §1, §4, §3
Data set [5] shares this test system. Kind of data set: UV B protection of HaCaT keratinocytes, topical application model (Protocol I, SRB viability). The conditions noted are these: for % UV B protection as compared to control: Table B, Topical model. As to the method: as §1, §2, §3
The mark [6] stands for this setting: summary in words, Table I, HaCaT, topical and oral protocols not separated.

Marks after values point to notes of the source that are not given here.

Turning to `C=C[C@@]1(C)CC(=O)[C@]2(O)[C@@]3(C)CCCC(C)(C)[C@@H]3[C@H](O)[C@H](OC(C)=O)[C@@]2(C)O1` [7β-Acetoxy-6β,9α-dihydroxy-8,13-epoxy-labd-14-en-11-one], the “Folds of Melanin Enhancement compared to control” value was 1 Folds in data set [1] (0.25 μg/ml); 1.1 Folds in data set [1] (0.5 μg/ml); 1.5* Folds in data set [1] (1 μg/ml); 1.8* Folds in data set [1] (2 μg/ml); 2.2* Folds in data set [1] (3 μg/ml); 2.8* Folds in data set [1] (5 μg/ml). In addition, in data set [1] (12 μg/ml), the “Folds of Melanin Enhancement compared to control” value is 3.2* Folds. Also, the “melanin enhancement activity, comparison in words” value (from here on “melanin enhancement activity”) in data set [1] is “comparable to that of active 3”.

Turning to `C/C=C1\C(=O)C[C@H]2[C@@H]3CCC4=CC(=O)CC[C@]4(C)[C@H]3CC[C@]12C` [Gugulsterone, Guggulsterone], the “Folds of Melanin Enhancement compared to control” value in data set [1] (0.25 μg/ml) is 1.15 Folds; in data set [1] (0.5 μg/ml) it was 1.25 Folds; in data set [1] (1 μg/ml), 1.28 Folds; in data set [1] (2 μg/ml) it was 1.38 Folds; in data set [1] (3 μg/ml) it was 2.38* Folds; in data set [1] (5 μg/ml), 2.45* Folds. In addition, the “Folds of Melanin Enhancement compared to control” value in data set [1] (12 μg/ml) was 2.5* Folds. Besides, the “melanin enhancement activity” value in data set [1] is given as “comparable to active III but inferior to active I”.

As for `CC1(C)[C@@H](O[C@H]2O[C@H](C(=O)O)[C@@H](O)[C@H](O)[C@H]2O[C@@H]2O[C@H](C(=O)O)[C@@H](O)[C@H](O)[C@H]2O)CC[C@]2(C)[C@H]3C(=O)C=C4[C@@H]5C[C@@](C)(C(=O)O)CC[C@]5(C)CC[C@@]4(C)[C@]3(C)CC[C@@H]12` [Glycyrrhizin], the “Folds of Melanin Enhancement compared to control” value is recorded as 1.82* Folds in data set [1] (0.25 μg/ml); 2.25* Folds in data set [1] (0.5 μg/ml); 2.58* Folds in data set [1] (1 μg/ml); 2.76* Folds in data set [1] (2 μg/ml); 2.88* Folds in data set [1] (3 μg/ml); 2.92* Folds in data set [1] (5 μg/ml). Besides, the “Folds of Melanin Enhancement compared to control” value in data set [1] (12 μg/ml) is listed as 2.95* Folds. Besides, in data set [1], the “melanin enhancement activity” value was “comparable to active III but inferior to active I”.

As to `CC(C)=CCOc1c2occc2cc2ccc(=O)oc12` [Imperatorin], the “Folds of Melanin Enhancement compared to control” value in data set [1] (0.25 μg/ml) was 1.08 Folds; in data set [1] (0.5 μg/ml), 1.25 Folds; in data set [1] (1 μg/ml) it was 1.58* Folds; in data set [1] (2 μg/ml), 1.78* Folds; in data set [1] (3 μg/ml), 2.58* Folds; in data set [1] (5 μg/ml), “toxic”. In addition, the “Folds of Melanin Enhancement compared to control” value in data set [1] (12 μg/ml) is “toxic”. In addition, the “melanin enhancement activity” value in data set [1] was “comparable to active III but inferior to active I”.

On to `C=C[C@@]1(C)CC(=O)[C@]2(O)[C@@]3(C)[C@@H](O)CCC(C)(C)[C@@H]3[C@H](O)[C@H](O)[C@@]2(C)O1` [Active I, 8,13-epoxy-1α,6β,7β,9α-tetrahydroxylabd-14-en-11-one], for which the “% UV A protection” value in data set [2] (0.25 μg/ml) is recorded as 14%; in data set [2] (0.5 μg/ml), 16%; in data set [2] (1 μg/ml), 19%; in data set [2] (2 μg/ml), 31* %; in data set [2] (3 μg/ml), 42* %; in data set [2] (5 μg/ml), 49* %. For the same molecule, the “% UV A protection” value is on record as 59* % in data set [2] (12 μg/ml); 24* % in data set [4] (0.25 μg/ml); 29* % in data set [4] (0.5 μg/ml); 58* % in data set [4] (1 μg/ml); 82* % in data set [4] (2 μg/ml); 98* % in data set [4] (3 μg/ml). The “% UV A protection” value was 97* % in data set [4] (5 μg/ml) and 98* % in data set [4] (12 μg/ml). The “UV protection UV A” value in data set [2] (setting [6]) is listed as “Significant”. Further, the “% UV B protection” value is recorded as 15* % in data set [3] (0.25 μg/ml); 35* % in data set [3] (0.5 μg/ml); 65* % in data set [3] (1 μg/ml); 80* % in data set [3] (2 μg/ml); 91* % in data set [3] (3 μg/ml); 97* % in data set [3] (5 μg/ml). Moreover, the “% UV B protection” value in data set [3] (12 μg/ml) is recorded as 98* %. The “No. of folds of Melanin Enhancement compared to control” value in data set [1] (0.25 μg/ml) is listed as 1.1 folds; in data set [1] (0.5 μg/ml) it was 1.25 folds; in data set [1] (1 μg/ml), 1.9* folds; in data set [1] (2 μg/ml), 2.8* folds; in data set [1] (3 μg/ml) it was 3.2* folds; in data set [1] (5 μg/ml), 3.8* folds. Moreover, the “No. of folds of Melanin Enhancement compared to control” value in data set [1] (12 μg/ml) is 4.2* folds. Also, the “melanin enhancement activity” value in data set [1] is “more than active II or active III”. Besides, in data set [1] (mouse), the “dose levels still tolerated and effective, relative to the maximum tolerated dose levels of active III” value came out at 2.4 times. Moreover, the Melanin enhancement entry in data set [1] (summary in words, Table I) is “Significant”. Further, the “% UV B protection as compared to control” value in data set [5] (0.25 μg/ml) is reported as 10%; in data set [5] (0.5 μg/ml), 13%; in data set [5] (1 μg/ml), 20* %; in data set [5] (2 μg/ml), 35* %; in data set [5] (3 μg/ml), 45* %; in data set [5] (5 μg/ml) it was 50* %. In addition, in data set [5] (12 μg/ml), the “% UV B protection as compared to control” value is listed as 55* %. Further, in data set [5] (setting [6]), the “UV protection UV B” value was “Significant”.

Regarding `C=CC1(C)CC(=O)C2C3(C)CCCC(C)(C)C3C(O)C(OC(C)=O)C2(C)O1` (stereo not drawn) [7β-Acetoxy-6β-hydroxy-8,13-epoxy-labd-14-en-11-one], the “Folds of Melanin Enhancement compared to control” value in data set [1] (0.25 μg/ml) is on record as 1.1 Folds; in data set [1] (0.5 μg/ml), 1.13 Folds; in data set [1] (1 μg/ml) it was 1.4* Folds; in data set [1] (2 μg/ml), 2* Folds; in data set [1] (3 μg/ml), 2.1* Folds; in data set [1] (5 μg/ml) it was 2.2* Folds. Further, in data set [1] (12 μg/ml), the “Folds of Melanin Enhancement compared to control” value is 3* Folds. In addition, in data set [1], the “melanin enhancement activity” value was “comparable to that of active 3”.

In the case of `O=C(CCCCc1ccc2c(c1)OCO2)N1CCCCC1` [tetrahydropiperine], in data set [1] (Example 4), the toxicity to cells result is recorded as “toxic to cells”. Further, the “melanin enhancement activity” value in data set [1] is reported as “does not show significant melanin enhancement activity”.

Consider `COc1c2ccoc2cc2oc(=O)ccc12` [Active 5-MOP, 5-methoxy psoralen], for which the “Folds of Melanin Enhancement compared to control” value in data set [1] (0.25 μg/ml) is listed as 1.1 Folds; in data set [1] (0.5 μg/ml) it was 1.15 Folds; in data set [1] (1 μg/ml) it was 1.5* Folds; in data set [1] (2 μg/ml), “toxic”; in data set [1] (3 μg/ml), “toxic”; in data set [1] (5 μg/ml), “toxic”. For the same molecule, the “Folds of Melanin Enhancement compared to control” value in data set [1] (12 μg/ml) is “toxic”. Besides, the “melanin enhancement activity” value in data set [1] was “comparable to active III but inferior to active I”.

On to `COc1c2occc2cc2ccc(=O)oc12` [Active 8-MOP, 8-Methoxy psoralen], for which the “Folds of Melanin Enhancement compared to control” value is given as 1.12 Folds in data set [1] (0.25 μg/ml); 1.25 Folds in data set [1] (0.5 μg/ml); 1.4* Folds in data set [1] (1 μg/ml); “toxic” in data set [1] (2 μg/ml); “toxic” in data set [1] (3 μg/ml); “toxic” in data set [1] (5 μg/ml). The “Folds of Melanin Enhancement compared to control” value in data set [1] (12 μg/ml) is on record as “toxic”. Besides, the “melanin enhancement activity” value in data set [1] was “comparable to active III but inferior to active I”.

Values taken from US20080226571A1, “Compositions and methods to effect enhanced photoprotection against UV A and UV B induced damage of human skin” (priority 2007, published 2008).
